One data set deals with T1, Gαs/GDP (Homo sapiens, UniProt P63092).
T1 construct: hexahistidine (N, cleaved yes); made in house; host or cells: E. coli BL21(DE3)
The data set can be described thus: Bio-layer interferometry (BLI), GDP-bound Gαs. Conditions: read-out: KD, binding to Gαs/GDP. The protocol: BLI experiments were performed using an OctetRED384 instrument from ForteBio. All experiments were performed at 25°C using BLI buffer (10 mM HEPES pH 7.4, 150 mM NaCl, 1mM MgCl2, 0.05% Tween 20, 0.1% DMSO, 0.2 mM GNP or GDP). Cyclic peptides or Gα proteins were diluted to a series of concentrations (Final concentrations were indicated in Figures) in BLI buffer plus 10 μM Biotin. Assays were conducted in Greiner 384well, black, flat bottom polypropylene plates containing the protein solutions, BLI buffer plus 10 μM Biotin for dissociation, and serial dilutions of cyclic peptides to be tested.
Biotinylated proteins or cyclic peptides were immobilized on Streptavidin biosensors by dipping sensors into plate wells containing protein solutions at a concentration of 50–150 nM. Protein loading is around 2–3 nm. Cyclic peptide loading is around 0.2–0.3 nm. Sensors loaded with proteins or cyclic peptides were moved and dipped into wells with BLI buffer plus 10 μM Biotin to block unlabeled Streptavidin. […]
Raw kinetic data collected were processed with the Data Analysis software provided by the manufacturer using single reference subtraction in which buffer-only reference was subtracted (For GN13 analysis). […] The resulting data were analyzed based on a 1:1 binding model from which kon and koff values were obtained and then Kd values were calculated.

The target in the next data set is T2, Gαs (Homo sapiens, UniProt P63092).
T2 construct: vector His tag with thrombin/Drice site (removed); made in house; host or cells: E. coli BL21(DE3)
The experiment in a line: Steady-state GTPase assay, Gαs short isoform. Particulars: read-out: IC50, inhibition of Gαs steady-state GTPase activity. It counts as biochemical. Here is the method: (§1) WT Gαs (both short and long) was diluted to a 6 μM stock (4X) in GTPase assay buffer (20 mM HEPES 7.5, 150 mM NaCl, 1 mM MgCl2). The protein was 1:1 (v/v) diluted with 4X cyclic peptide stock (0, 1.56, 3.12, 6.25, 12.5, 25, 50, 100 μM) in GTPase assay buffer, and incubated at 37°C for an hour. The samples were then 1:1 (v/v) diluted with reaction buffer (20 mM HEPES 7.5, 150 mM NaCl, 1 mM MgCl2, and 1 mM GTP) and incubated at 37°C. After 30, 50, 70, 90 min, 50 μL of the sample was removed to measure the inorganic phosphate (Pi) concentration by PiColorLock Phosphate Detection kit. A standard curve was made using the 0.1 mM Pi stock in the kit. Final [cyclic peptide]: 0, 0.39, 0.78, 1.56, 3.12, 6.25, 12.5, 25 μM; Final [Gαs]: 1.5 μM; Final [GTP]: 500 μM.

Another data set addresses T3, long isoform of Gαs (Homo sapiens, UniProt P63092).
T3 construct: made in house; host or cells: E. coli BL21(DE3)
The data set can be described thus: Steady-state GTPase assay, Gαs long isoform. The format is biochemical. Particulars: read-out: IC50, inhibition of steady-state GTPase activity of long isoform of Gαs. The protocol: as §1

For the next data set, the target named is T4, Gαs/GDP and Gβγ(C68S) (Homo sapiens, UniProt P63092).
T4 construct: hexahistidine (N, cleaved yes); made in house; host or cells: E. coli BL21(DE3) (Gαs); Sf9 insect cells (Gβ1γ2)
The experiment in a line: FRET based Gαs/Gβγ interaction assay. Particulars: FRET, Gαs/GDP 4 nM, Gβ1/γ2(C68S) 2 nM; read-out: IC50, inhibition of Gαs/Gβγ interaction. It counts as binding.

A short description of data set [1]: Chemical stability assay in DMEM with 10% FBS. It counts as in vitro ADME. Conditions: bovine, DMEM with 10% FBS (fetal bovine serum), 37 °C, values represent 95% confidence intervals, read-out: Half-life (hour), chemical stability in DMEM with 10% FBS. Here is the method:
(§2) These assays were conducted by Pharmaron Beijing CO., Ltd. Cyclic peptides working solutions were prepared at 10 μM in DMEM with 10% FBS (Avantor, Cat# 76,294–180) or human plasma (Pooled, Male & Female, BioIVT, Cat# HMN666664). The assays were performed in duplicate. Vials were incubated at 37 °C at 60 rpm in a water bath and taken at designated time points including 0, 480, 1080 and 1440 min. For each time point, the initiation of the reaction was staggered so all the time points were terminated with cold acetonitrile containing internal standards (IS, 100 nM alprazolam, 200 nM labetalol, 200 nM Imipramine and 2 μM ketoplofen) at the same time. Samples were vortexed then centrifuged at 4°C to remove proteins. The supernatants from centrifugation were diluted by ultra-pure H2O and used for LC-MS/MS analysis. All calculations were carried out using GraphPad Prism. Remaining percentages of parent compounds at each time point were estimated by determining the peak area ratios from extractedion chromatograms.

The nature of the next data set: Plasma stability assay. It counts as in vitro ADME. Particulars: both sexes, pooled human plasma, 37 °C, values represent 95% confidence intervals, read-out: Half-life (hour), plasma stability. Here is the method: as §2

Where a SMILES comes first, the peptide text is derived from it. Bridges are numbered along the chain shown (N, C = ends). [ ]: non-standard residue; d: D form.

T3 sequence (P63092 whole entry, canonical isoform): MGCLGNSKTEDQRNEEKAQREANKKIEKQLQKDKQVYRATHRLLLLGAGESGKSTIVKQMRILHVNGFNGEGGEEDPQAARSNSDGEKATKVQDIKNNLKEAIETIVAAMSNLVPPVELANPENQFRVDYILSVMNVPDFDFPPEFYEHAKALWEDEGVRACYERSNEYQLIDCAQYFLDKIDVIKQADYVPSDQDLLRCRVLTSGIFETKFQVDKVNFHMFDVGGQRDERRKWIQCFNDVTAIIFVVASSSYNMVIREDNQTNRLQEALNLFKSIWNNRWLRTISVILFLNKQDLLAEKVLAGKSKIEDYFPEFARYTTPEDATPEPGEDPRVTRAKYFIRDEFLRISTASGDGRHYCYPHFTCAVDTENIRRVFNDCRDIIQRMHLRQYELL
T2 sequence (P63092 with tags, fused parts or gaps isoform P63092-2): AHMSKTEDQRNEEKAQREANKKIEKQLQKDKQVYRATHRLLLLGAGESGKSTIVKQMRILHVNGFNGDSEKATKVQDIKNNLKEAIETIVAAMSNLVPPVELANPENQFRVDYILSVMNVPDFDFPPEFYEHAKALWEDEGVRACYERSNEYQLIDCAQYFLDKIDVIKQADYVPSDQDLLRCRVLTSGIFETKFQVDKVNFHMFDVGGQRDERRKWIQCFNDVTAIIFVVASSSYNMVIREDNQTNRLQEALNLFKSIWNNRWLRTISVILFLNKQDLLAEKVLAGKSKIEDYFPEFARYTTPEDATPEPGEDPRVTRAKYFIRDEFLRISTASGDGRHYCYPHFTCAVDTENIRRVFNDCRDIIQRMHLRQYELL
T4 sequence (P63092 with tags, fused parts or gaps isoform P63092-2): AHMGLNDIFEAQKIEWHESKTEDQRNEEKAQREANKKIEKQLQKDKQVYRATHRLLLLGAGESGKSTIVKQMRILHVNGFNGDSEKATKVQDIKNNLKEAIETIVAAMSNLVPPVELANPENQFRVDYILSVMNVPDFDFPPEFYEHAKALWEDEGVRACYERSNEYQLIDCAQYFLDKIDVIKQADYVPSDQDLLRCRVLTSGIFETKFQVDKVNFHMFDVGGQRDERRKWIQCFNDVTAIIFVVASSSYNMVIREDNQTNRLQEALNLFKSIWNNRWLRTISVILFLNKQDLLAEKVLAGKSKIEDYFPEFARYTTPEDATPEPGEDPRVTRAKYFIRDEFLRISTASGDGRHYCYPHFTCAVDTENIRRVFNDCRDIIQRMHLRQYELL

As to `CC[C@H](C)[C@@H]1NC(=O)[C@H](CC(C)C)NC(=O)[C@@H](Cc2ccc(O)cc2)NC(=O)CSC[C@@H](C(=O)NCC(N)=O)NC(=O)[C@@H]2CCCN2C(=O)[C@H](CC(C)C)NC(=O)[C@H](CC(N)=O)NC(=O)[C@H](Cc2ccccc2)NC(=O)[C@H](C)NC(=O)[C@H](Cc2c[nH]c3ccccc23)NC(=O)[C@H](CCC(N)=O)NC(=O)[C@H](CCCNC(=N)N)NC(=O)[C@H](Cc2ccccc2)NC(=O)[C@H]([C@@H](C)O)NC1=O` [GD20] ({CH2CO}-[dY]LITFRQWAFNLPCG-NH2; thioether N-14), on Gαs/GDP, the Kd was found to be 31.4 ± 0.7 nM. The IC50 at Gαs is 1150 ± 160 nM; at long isoform of Gαs it was 1320 ± 170 nM; on Gαs/GDP and Gβγ(C68S), 18.4 ± 2 nM. Also, the half-life (commonly the time in which the quantity being followed falls by half) at 10 μM in data set [1] is more than 142 h; in “Plasma stability assay”, 16.4 to 27.1 h.

For the origin of these results see paper PMC9747239, “State-selective modulation of heterotrimeric Gαs signaling with macrocyclic peptides” (Cell, 2022).
